Source: patent US12691086B2, “Methods of treating systemic sclerosis and idiopathic pulmonary fibrosis” (HORIZON THERAPEUTICS IRELAND DAC, priority 2022, dated 2026)
In brackets after ≈: the same amount, converted by molar mass.

Legend:
[1] = Solubility of the different polymorphs in phosphate buffer; assay type: physicochemical; details: for solubility, concentration versus time: pH 7.4 phosphate buffer, 25° C.; for equilibrium solubility relative to Form 1: 24 hours
Description: The solubility of the different polymorphs was determined at pH 7.4 in phosphate buffer at 25° C. Samples were analyzed as a function of time for each form to determine the equilibrium values. The residual solids from each sample were analyzed to verify that the form was unchanged during the experiment. The concentration (mg/mL) versus time data is listed below for each form: […]

[2] = Physical stability of solid state forms, examined by FTIR; assay type: physicochemical; details: 80° C./75% RH, 1 week (7 days), open glass vials
Description: The physical stability of Forms 1, 2, and 3 was investigated at 80° C./75% RH in order to determine if interconversion was observed. The samples were examined by FTIR after stressing 1 week in open glass vials.

[3] = Dynamic Vapor Sorption (DVS); assay type: physicochemical
Description: Moisture sorption/desorption isotherms are recorded on a DVS-1 from SURFACE MEASUREMENT SYSTEMS. Two cycles are run at 25° C., in which the Relative Humidity (RH) is stepped from 0 to 95% and back to 0%. The data is evaluated with the software DVSWin V. 2.15.

[4] = test system: idiopathic pulmonary fibrosis; details: Palmer et al. Chest 2018; cited from earlier work

Compound | 24 hour solubility result, greater than Form 1 ([1]; 24 hour) | solubility, concentration versus time ([1]; 1 hr) [mg/mL] | solubility, concentration versus time ([1]; 2 hr) [mg/mL] | solubility, concentration versus time ([1]; 3 hr) [mg/mL] | changes in FTIR spectrum (physical stability, interconversion) [2] | Reversible water uptake ([3]; 25° C.) | Reversible water uptake ([3]; between 0 and 95% RH) | equilibrium solubility relative to Form 1 [1] | rate of decline in forced vital capacity (FVC) compared with placebo [4]
COc1ccc(C(=O)NC2(C(=O)O)Cc3ccccc3C2)cc1OCCc1cccc(C)c1 [Form 2, 2-(4-methoxy-3-(3-methylphenethoxy)benzamido)-2,3-dihydro-1H-indene-2-carboxylic acid] | more than 30% | 0.034 (≈ 76.3 µM) | 0.039 (≈ 87.5 µM) | 0.043 (≈ 96.5 µM) | unchanged FTIR |  |  |  | 
COc1ccc(C(=O)NC2(C(=O)O)Cc3ccccc3C2)cc1OCCc1cccc(C)c1 [Form 1, 2-(4-methoxy-3-(3-methylphenethoxy)benzamido)-2,3-dihydro-1H-indene-2-carboxylic acid] |  | 0.042 (≈ 94.3 µM) | 0.041 (≈ 92 µM) | 0.042 (≈ 94.3 µM) | unchanged FTIR | less than 1% | ~ −0.1 % w/w |  | 
Cc1noc(-c2ccc(-c3ccc(C4(C(=O)O)CC4)cc3)cc2)c1NC(=O)O[C@H](C)c1ccccc1 [BMS-986020] |  |  |  |  |  |  |  |  | significantly slowed

The next lines start with results.

24 hour solubility result, greater than Form 1 ([1]; 24 hour) | solubility, concentration versus time ([1]; 1 hr) [mg/mL] | solubility, concentration versus time ([1]; 2 hr) [mg/mL] | solubility, concentration versus time ([1]; 3 hr) [mg/mL] | changes in FTIR spectrum (physical stability, interconversion) [2] | Reversible water uptake ([3]; 25° C.) | Reversible water uptake ([3]; between 0 and 95% RH) | equilibrium solubility relative to Form 1 [1] | Compound | rate of decline in forced vital capacity (FVC) compared with placebo [4]
 | 0.079 (≈ 177 µM) | 0.089 (≈ 200 µM) | 0.105 (≈ 236 µM) |  |  |  | more than double | COc1ccc(C(=O)NC2(C(=O)O)Cc3ccccc3C2)cc1OCCc1cccc(C)c1 [Form 4, 2-(4-methoxy-3-(3-methylphenethoxy)benzamido)-2,3-dihydro-1H-indene-2-carboxylic acid] | 
 | 0.083 (≈ 186 µM) | 0.093 (≈ 209 µM) | 0.095 (≈ 213 µM) | unchanged FTIR |  |  | more than double | COc1ccc(C(=O)NC2(C(=O)O)Cc3ccccc3C2)cc1OCCc1cccc(C)c1 [Form 3, 2-(4-methoxy-3-(3-methylphenethoxy)benzamido)-2,3-dihydro-1H-indene-2-carboxylic acid] | 
